Tested on: Staphylococcus aureus
Experiment: Antibacterial activity against Staphylococcus aureus ATCC 25923 assessed as reduction of bacterial count by broth microdilution method
Format: functional

CN[C@H](CC(C)C)C(=O)N[C@H]1C(=O)N[C@@H](CC(N)=O)C(=O)N[C@H]2C(=O)N[C@H]3C(=O)N[C@H](C(=O)N[C@H](C(=O)O)c4cc(O)cc(O)c4-c4cc3ccc4O)[C@H](O)c3ccc(c(Cl)c3)Oc3cc2cc(c3O[C@@H]2O[C@H](CO)[C@@H](O)[C@H](O)[C@H]2O[C@H]2C[C@](C)(N)[C@H](O)[C@H](C)O2)Oc2ccc(cc2Cl)[C@H]1O [VANCOMYCIN]
Log10 cfu: 1

Source: ChEMBL document CHEMBL1137502, “Design and evaluation of analogues of the bacterial cell-wall peptidoglycan motif L-Lys-D-Ala-D-Ala for use in a vancomycin biosensor” (2007)
